Measured values from patent publication US11618743B2, “Herbicidal compounds” (SYNGENTA PARTICIPATIONS AG, priority 2017, dated 2023).

Experiments:
Assay in all cases: Post-emergence efficacy, Method A
Type in all cases: in vivo
[1] = test system: Amaranthus palmeri (AMAPA); settings: Application rate 500 g/Ha, evaluated after 13 days; for Control of weed species AMAPA after post-emergence application (100=total damage to plant; 0=no damage to plant): Method A; for Control of weed species after post-emergence application, AMAPA: 100=total damage to plant, 0=no damage
Description: (§1) Seeds of a variety of test species were sown in standard soil in pots. After cultivation for 14 days (post-emergence) under controlled conditions in a glasshouse (at 24/16° C., day/night; 14 hours light; 65% humidity), the plants were sprayed with an aqueous spray solution derived from the dissolution of the technical active ingredient formula (I) in a small amount of acetone and a special solvent and emulsifier mixture referred to as IF50 (11.12% Emulsogen EL360 TM+44.44% N-methylpyrrolidone+44.44% Dowanol DPM glycol ether), to create a 50 g/l solution which was then diluted to required concentration using 0.25% or 1% Empicol ESC70 (Sodium lauryl ether sulphate)+1% ammonium sulphate as diluent.
(§2) The test plants were then grown in a glasshouse under controlled conditions (at 24/16° C., day/night; 14 hours light; 65% humidity) and watered twice daily. After 13 days the test was evaluated (100=total damage to plant; 0=no damage to plant).
(§3) Ipomoea hederacea (IPOHE), Euphorbia heterophylla (EPHHL), Chenopodium album (CHEAL), Amaranthus palmeri (AMAPA), Lolium perenne (LOLPE), Digitaria sanguinalis (DIGSA), Eleusine indica (ELEIN), Echinochloa crus-galli (ECHCG), Setaria faberi (SETFA)

[2] = test system: Chenopodium album (CHEAL); settings: Application rate 500 g/Ha, evaluated after 13 days; for Control of weed species CHEAL after post-emergence application (100=total damage to plant; 0=no damage to plant): Method A; for Control of weed species after post-emergence application, CHEAL: 100=total damage to plant, 0=no damage
Description: as §1, §2, §3

[3] = test system: Digitaria sanguinalis (DIGSA); settings: Application rate 500 g/Ha, evaluated after 13 days; for Control of weed species DIGSA after post-emergence application (100=total damage to plant; 0=no damage to plant): Method A; for Control of weed species after post-emergence application, DIGSA: 100=total damage to plant, 0=no damage
Description: as §1, §2, §3

[4] = test system: Echinochloa crus-galli (ECHCG); settings: Application rate 500 g/Ha, evaluated after 13 days; for Control of weed species ECHCG after post-emergence application (100=total damage to plant; 0=no damage to plant): Method A; for Control of weed species after post-emergence application, ECHCG: 100=total damage to plant, 0=no damage
Description: as §1, §2, §3

Eleusine indica (ELEIN) = settings: Application rate 500 g/Ha, evaluated after 13 days; for Control of weed species ELEIN after post-emergence application (100=total damage to plant; 0=no damage to plant): Method A; for Control of weed species after post-emergence application, ELEIN: 100=total damage to plant, 0=no damage
Description: as §1, §2, §3

[5] = test system: Euphorbia heterophylla (EPHHL); settings: Application rate 500 g/Ha, evaluated after 13 days; for Control of weed species EPHHL after post-emergence application (100=total damage to plant; 0=no damage to plant): Method A; for Control of weed species after post-emergence application, EPHHL: 100=total damage to plant, 0=no damage
Description: as §1, §2, §3

Setaria faberi (SETFA) = settings: Application rate 500 g/Ha, evaluated after 13 days; for Control of weed species SETFA after post-emergence application (100=total damage to plant; 0=no damage to plant): Method A; for Control of weed species after post-emergence application, SETFA: 100=total damage to plant, 0=no damage
Description: as §1, §2, §3

Compound | Control of weed species AMAPA after post-emergence application (100=total damage to plant; 0=no damage to plant) [1] | Control of weed species CHEAL after post-emergence application (100=total damage to plant; 0=no damage to plant) [2] | Control of weed species DIGSA after post-emergence application (100=total damage to plant; 0=no damage to plant) [3] | Control of weed species ECHCG after post-emergence application (100=total damage to plant; 0=no damage to plant) [4] | Control of weed species ELEIN after post-emergence application (100=total damage to plant; 0=no damage to plant) (Eleusine indica (ELEIN)) | Control of weed species EPHHL after post-emergence application (100=total damage to plant; 0=no damage to plant) [5] | Control of weed species SETFA after post-emergence application (100=total damage to plant; 0=no damage to plant) (Setaria faberi (SETFA)) | Control of weed species after post-emergence application, AMAPA [1] | Control of weed species after post-emergence application, CHEAL [2] | Control of weed species after post-emergence application, DIGSA [3] | Control of weed species after post-emergence application, ECHCG [4] | Control of weed species after post-emergence application, ELEIN (Eleusine indica (ELEIN)) | Control of weed species after post-emergence application, EPHHL [5] | Control of weed species after post-emergence application, SETFA (Setaria faberi (SETFA))
COC(=O)CC[n+]1ccc(-c2cccnn2)cn1.O=C([O-])C(F)(F)F [Compound A139] | 80 | 100 | 100 | 100 | 100 | 90 | 100 | – | – | – | – | – | – | –
O=C(O)CC[n+]1ccc(-c2ccncc2F)cn1.O=C([O-])C(F)(F)F [Compound A157] | – | – | – | – | – | – | – | 100 | 100 | 70 | 80 | 90 | 80 | 80
Nc1cc(-c2cc[n+](CCC(=O)O)nc2)nc(N)n1.O=C([O-])C(F)(F)F [Compound A188] | – | – | – | – | – | – | – | 90 | 50 | 40 | 50 | 20 | 30 | 30
O=C(O)C(O)C[n+]1ccc(-c2ccncn2)cn1.O=C([O-])C(F)(F)F (centres unmarked) [Compound A190] | – | – | – | – | – | – | – | 100 | 80 | 60 | 60 | 70 | 80 | 40
CC(C)OC(=O)CC[n+]1ccc(-c2ncccn2)cn1.O=C([O-])C(F)(F)F [Compound A81, isopropyl 3-(4-pyrimidin-2-ylpyridazin-1-ium-1-yl)propanoate 2,2,2-trifluoroacetate] | 100 | 90 | 100 | 90 | 80 | 100 | 90 | – | – | – | – | – | – | –
O=C(O)CC[n+]1ccc(-c2ncccc2Cl)cn1.O=C([O-])C(F)(F)F [Compound A149] | 30 | 40 | 50 | 50 | 60 | 30 | 40 | – | – | – | – | – | – | –
Cc1c[n+](CCC(=O)O)ncc1-c1ncccn1.O=C([O-])C(F)(F)F [Compound A153] | – | – | – | – | – | – | – | 90 | 60 | 20 | 40 | 20 | 40 | 20
O=C(O)CC[n+]1ccc(-c2ncccc2C(F)(F)F)cn1.O=C([O-])C(F)(F)F [Compound A128] | 30 | 10 | 30 | 30 | 50 | 0 | 30 | – | – | – | – | – | – | –
